Experimental data from patent US8933122B2, “Use of cationic surfactants as sporicidal agents” (Laboratorios Miret, S.A., priority 2008, dated 2015).

Assays:
[1] = test system: Arthrobacter oxydans ATCC 8010; conditions: Gram + Bacteria; cited from earlier work
[2] = test system: Bacillus cereus var mycoide ATCC 11778; conditions: Gram + Bacteria; cited from earlier work
[3] = test system: Penicillium chrysogenum CECT 2802; conditions: Fungi; cited from earlier work
[4] = test system: Rhodotorula rubra CECT 1158; conditions: Yeast; cited from earlier work
[5] = test system: Candida albicans ATCC 10231; conditions: Yeast; cited from earlier work
[6] = test system: Penicillium funiculosum CECT 2914; conditions: Fungi; cited from earlier work
[7] = test system: Aspergillus niger fungical spores; test: Fungicide activity, UNE-EN 1275 (Example 2); assay type: cell-based; conditions: 20° C.; for Test of LAE fungicide activity (Na), surviving spores count: N 5 × 10^7 cfu/mL
Source text: The determination of the fungicide activity of LAE has been carried out according to the European standard UNE-EN 1275: “Chemical disinfectant and antiseptic. Fungicide activity. Test method and requirements”.
The fungicide activity of a given product is defined by its capacity to reduce at least by 10^4 the amount of Aspergillus niger fungical spores in suspension, in the conditions established in the method.
The product is in contact with a suspension of fungical spores during an established period of time (60 minutes). After this time, the effect of the product is neutralized by adding Polysorbate 80 in water solution at 2%, preceding to the surviving spores count.
• 1. Spore suspension obtained from a spored-form culture of Aspergillus niger. • 2. Count of the spore suspension of Aspergillus niger. • 3. The possible toxic effect of the neutralizer on the spores in the absence of the product is valued. • 4. Evaluation of the neutralizing effect of the neutralizer over the product. • 5. Evaluation of the fungicide effect of the product. • 6. Result calculation. Results:
Tabulation of the Method and Test Validation Results (at 20° C.):
Fungicide activity is calculated as follows: R=N×0.1/Na N cfu/mL of the fungical spore suspension Na cfu/mL of the fungicide activity The calculated reduction of a solution of: • 100 μg/mL of LAE is R=3.1×10^2 cfu/mL • 200 μg/mL of LAE is R=1.3×10^3 cfu/mL • 300 μg/mL of LAE is R=1.4×10^3 cfu/mL • 400 μg/mL of LAE is R=1.7×10^3 cfu/mL • 500 μg/mL of LAE is R>10^4 cfu/mL
A product is considered fungicide if its use results in a reduction in the number of Aspergillus niger fungical spores equal to or above 10^4 after being in contact for 60 minutes in the conditions set in UNE-EN 1275.

[8] = test system: Serratia marcenses CECT 274; conditions: Gram − Bacteria; cited from earlier work
[9] = test system: Leuconostoc mesenteroides CETC 912; conditions: Gram + Bacteria; cited from earlier work
[10] = test system: Gliocadium virens ATCC 4645; conditions: Fungi; cited from earlier work
[11] = test system: Clostridium perfringens ATCC 77454; conditions: Gram + Bacteria; cited from earlier work
[12] = test system: Citrobacter freundii ATCC 22636; conditions: Gram − Bacteria; cited from earlier work
[13] = test system: Lactobacillus delbrueckii ssp lactis CECT 372; conditions: Gram + Bacteria; cited from earlier work
[14] = test system: Alcaligenes faecalis ATCC 8750; conditions: Gram − Bacteria; cited from earlier work
[15] = test system: Saccharomyces cerevisiae ATCC 9763; conditions: Yeast; cited from earlier work
[16] = test system: Escherichia coli ATCC 8739; conditions: Gram − Bacteria; cited from earlier work
[17] = animals and humans; cited from earlier work
[18] = human beings; cited from earlier work

CCCCCCCCCCCC(=O)N[C@@H](CCCN=C(N)N)C(=O)OCC.Cl [LAE, ethyl ester of the lauramide of the arginine monohydrochloride]
M.I.C. [1]: 64 ppm | M.I.C. [2]: 32 ppm | M.I.C. [3]: 128 ppm | M.I.C. [4]: 16 ppm | M.I.C. [5]: 16 ppm | M.I.C. [6]: 16 ppm | calculated reduction R=N×0.1/Na ([7]; 100 μg/mL of LAE, 60 minutes): 3.1×10^2 cfu/mL | calculated reduction R=N×0.1/Na ([7]; 200 μg/mL of LAE, 60 minutes): 1.3×10^3 cfu/mL | calculated reduction R=N×0.1/Na ([7]; 300 μg/mL of LAE, 60 minutes): 1.4×10^3 cfu/mL | calculated reduction R=N×0.1/Na ([7]; 400 μg/mL of LAE, 60 minutes): 1.7×10^3 cfu/mL | calculated reduction R=N×0.1/Na ([7]; 500 μg/mL of LAE, 60 minutes): > 10^4 cfu/mL | concentration at which fungicide active (reduction equal to or above 10^4) ([7]; 60 minutes contact, UNE-EN 1275): ≥ 500 ppm | concentration from which a total inhibition of fungical spore germination has been observed ([7]; 60 minutes): ≥ 500 ppm | concentration from which there is inhibition of fungical spore germination ([7]; 60 minutes): ≥ 100 ppm | Test of LAE fungicide activity (Na), surviving spores count ([7]; LAE 12.5 μg/mL, 60 minutes contact): >300 cfu/mL | Test of LAE fungicide activity (Na), surviving spores count ([7]; LAE 25 μg/mL, 60 minutes contact): >300 cfu/mL | Test of LAE fungicide activity (Na), surviving spores count ([7]; LAE 50 μg/mL, 60 minutes contact): >300 cfu/mL | Test of LAE fungicide activity (Na), surviving spores count ([7]; LAE 100 μg/mL, 60 minutes contact): 1.6 × 10^4 cfu/mL | Test of LAE fungicide activity (Na), surviving spores count ([7]; LAE 200 μg/mL, 60 minutes contact): 3.9 × 10^3 cfu/mL | Test of LAE fungicide activity (Na), surviving spores count ([7]; LAE 300 μg/mL, 60 minutes contact): 3.5 × 10^3 cfu/mL | Test of LAE fungicide activity (Na), surviving spores count ([7]; LAE 400 μg/mL, 60 minutes contact): 3.0 × 10^3 cfu/mL | Test of LAE fungicide activity (Na), surviving spores count ([7]; LAE 500 μg/mL, 60 minutes contact): No | Test of LAE fungicide activity (Na), surviving spores count ([7]; LAE 1000 μg/mL, 60 minutes contact): No | M.I.C. [8]: 32 ppm | M.I.C. [9]: 32 ppm | M.I.C. [10]: 32 ppm | M.I.C. [11]: 16 ppm | M.I.C. [12]: 64 ppm | M.I.C. [13]: 16 ppm | M.I.C. [14]: 64 ppm | M.I.C. [15]: 32 ppm | M.I.C. [16]: 32 ppm | toxicological finding [17]: completely harmless to animals and humans | tolerability and toxicity in practical use [18]: well tolerated and to display a very low toxicity to human beings
